Measured values from publication PMC5448077, “Development of an orally available inhibitor of CLK1 for skipping a mutated dystrophin exon in Duchenne muscular dystrophy” (Scientific Reports, 2017).

Legend:
Experiment in all cases: biochemical
[1] = biological target: T1, PKD2 (Homo sapiens, UniProt Q9BZL6)
T1 construct: gene PRKD2
Description: (§1) These assays rely on the phosphorylation of small synthetic peptides developed for each kinase, and detect activity by changes in electrophoretic mobility (MSA assay) or by binding of a fluorescently labelled peptide to a large micro-particle and concomitant polarization increases (IMAP assay). Reaction conditions for each kinase are described in Supplementary Table S5. All kinase assays were carried out at Carna Biosciences (Kobe, Japan). The inhibitory map was constructed using Kinome Render[41]. Inhibitor (4×), substrate/ATP-Metal (4×), and kinase (2×) solutions were prepared with assay buffer (20 mM HEPES, 0.01% Triton X-100, 2 mM DTT, pH 7.5) and mixed in 384-well plates at room temperature for 1 or 5 h depending on the kinase. Reactions were stopped by the addition of termination buffer (QuickScout Screening Assist MSA; Carna Biosciences). The entire reaction mixture was then applied to a LabChip system (Perkin-Elmer, Waltham, MA, USA) and the product and substrate peptide peaks were separated and quantified, and then heights of product (P) and substrate (S) peptide peaks were calculated. The level of kinase activity was evaluated with the following equation: activity = P/(P + S).

[2] = biological target: FGFR3(K650E) (Homo sapiens, UniProt P22607, K650E)
FGFR3(K650E), sequence (P22607 whole entry K650E): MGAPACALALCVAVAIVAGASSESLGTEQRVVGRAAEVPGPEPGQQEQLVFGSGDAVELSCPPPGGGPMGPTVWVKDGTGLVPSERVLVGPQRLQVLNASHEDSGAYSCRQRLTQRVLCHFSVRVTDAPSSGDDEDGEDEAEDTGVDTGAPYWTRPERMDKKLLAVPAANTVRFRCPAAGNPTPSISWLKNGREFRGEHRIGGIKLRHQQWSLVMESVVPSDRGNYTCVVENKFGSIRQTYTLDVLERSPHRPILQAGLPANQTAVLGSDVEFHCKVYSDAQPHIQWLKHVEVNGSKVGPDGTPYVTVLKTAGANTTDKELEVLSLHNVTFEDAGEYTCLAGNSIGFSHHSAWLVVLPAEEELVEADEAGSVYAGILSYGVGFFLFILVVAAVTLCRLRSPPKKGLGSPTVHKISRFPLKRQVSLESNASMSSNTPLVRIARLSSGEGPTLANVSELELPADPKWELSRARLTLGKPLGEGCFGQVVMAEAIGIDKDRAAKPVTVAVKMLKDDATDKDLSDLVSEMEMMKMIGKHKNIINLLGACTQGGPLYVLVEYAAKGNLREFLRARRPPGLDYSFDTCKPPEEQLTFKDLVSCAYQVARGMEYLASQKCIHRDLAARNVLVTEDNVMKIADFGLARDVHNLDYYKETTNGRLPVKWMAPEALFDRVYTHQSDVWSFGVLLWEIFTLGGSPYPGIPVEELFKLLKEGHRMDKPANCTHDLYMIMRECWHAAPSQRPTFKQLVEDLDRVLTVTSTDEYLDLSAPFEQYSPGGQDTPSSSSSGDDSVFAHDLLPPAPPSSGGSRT
Description: as §1

[3] = biological target: T2, MRCKβ (Homo sapiens, UniProt Q9Y5S2)
T2 construct: gene CDC42BPB
Description: as §1

[4] = biological target: T3, ABL (Homo sapiens, UniProt P00519)
T3 construct: gene ABL1
Description: as §1

[5] = biological target: KIT(V654A) (Homo sapiens, UniProt P10721, V654A)
KIT(V654A), sequence (P10721 whole entry V654A): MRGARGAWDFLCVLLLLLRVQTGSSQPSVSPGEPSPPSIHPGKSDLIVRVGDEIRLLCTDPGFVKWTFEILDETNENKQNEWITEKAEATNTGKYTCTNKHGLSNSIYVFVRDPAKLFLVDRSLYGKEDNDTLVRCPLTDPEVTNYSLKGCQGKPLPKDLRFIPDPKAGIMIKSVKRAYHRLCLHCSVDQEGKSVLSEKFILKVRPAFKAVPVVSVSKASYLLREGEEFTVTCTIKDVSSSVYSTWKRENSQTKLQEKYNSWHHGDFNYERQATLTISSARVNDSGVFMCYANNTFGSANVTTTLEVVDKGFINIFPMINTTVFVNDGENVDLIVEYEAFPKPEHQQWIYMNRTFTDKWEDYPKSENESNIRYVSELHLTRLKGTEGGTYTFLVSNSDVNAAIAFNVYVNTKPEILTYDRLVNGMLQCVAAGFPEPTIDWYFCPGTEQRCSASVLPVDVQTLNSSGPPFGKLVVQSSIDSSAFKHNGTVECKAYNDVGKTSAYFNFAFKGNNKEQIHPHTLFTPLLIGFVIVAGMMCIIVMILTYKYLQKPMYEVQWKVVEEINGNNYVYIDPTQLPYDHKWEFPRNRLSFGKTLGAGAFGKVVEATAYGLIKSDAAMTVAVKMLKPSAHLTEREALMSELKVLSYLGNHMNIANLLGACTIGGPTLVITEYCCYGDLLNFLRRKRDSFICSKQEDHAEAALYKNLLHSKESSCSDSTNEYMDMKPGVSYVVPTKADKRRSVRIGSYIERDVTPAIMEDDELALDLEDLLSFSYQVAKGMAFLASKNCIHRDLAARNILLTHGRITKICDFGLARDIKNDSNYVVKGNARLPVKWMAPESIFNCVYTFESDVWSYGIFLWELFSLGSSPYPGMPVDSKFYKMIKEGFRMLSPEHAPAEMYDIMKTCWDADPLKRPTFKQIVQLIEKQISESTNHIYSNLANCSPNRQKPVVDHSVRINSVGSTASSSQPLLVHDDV
Description: as §1

[6] = biological target: FGFR4(V550L) (Homo sapiens, UniProt P22455, V550L)
Description: as §1

[7] = biological target: SRPK2 (Homo sapiens, UniProt P78362)
Description: as §1

[8] = biological target: T4, PDK1 (Homo sapiens, UniProt O15530)
T4 construct: gene PDPK1
Description: as §1

[9] = biological target: T5, p70S6Kβ (Homo sapiens, UniProt Q9UBS0)
T5 construct: gene RPS6KB2
Description: as §1

[10] = biological target: MARK1 (Homo sapiens, UniProt Q9P0L2)
Description: as §1

[11] = biological target: AKT1 (Homo sapiens, UniProt P31749)
Description: as §1

[12] = biological target: T6, DCAMKL2 (Homo sapiens, UniProt Q8N568)
T6 construct: gene DCLK2
Description: as §1

[13] = biological target: T7, PDGFRα(V561D) (Homo sapiens, UniProt P16234, V561D)
T7 construct: gene PDGFRA
Description: as §1

[14] = biological target: MET (Homo sapiens, UniProt P08581)
Description: as §1

[15] = biological target: MET(M1250T) (Homo sapiens, UniProt P08581, M1250T)
MET(M1250T), sequence (P08581 whole entry M1250T): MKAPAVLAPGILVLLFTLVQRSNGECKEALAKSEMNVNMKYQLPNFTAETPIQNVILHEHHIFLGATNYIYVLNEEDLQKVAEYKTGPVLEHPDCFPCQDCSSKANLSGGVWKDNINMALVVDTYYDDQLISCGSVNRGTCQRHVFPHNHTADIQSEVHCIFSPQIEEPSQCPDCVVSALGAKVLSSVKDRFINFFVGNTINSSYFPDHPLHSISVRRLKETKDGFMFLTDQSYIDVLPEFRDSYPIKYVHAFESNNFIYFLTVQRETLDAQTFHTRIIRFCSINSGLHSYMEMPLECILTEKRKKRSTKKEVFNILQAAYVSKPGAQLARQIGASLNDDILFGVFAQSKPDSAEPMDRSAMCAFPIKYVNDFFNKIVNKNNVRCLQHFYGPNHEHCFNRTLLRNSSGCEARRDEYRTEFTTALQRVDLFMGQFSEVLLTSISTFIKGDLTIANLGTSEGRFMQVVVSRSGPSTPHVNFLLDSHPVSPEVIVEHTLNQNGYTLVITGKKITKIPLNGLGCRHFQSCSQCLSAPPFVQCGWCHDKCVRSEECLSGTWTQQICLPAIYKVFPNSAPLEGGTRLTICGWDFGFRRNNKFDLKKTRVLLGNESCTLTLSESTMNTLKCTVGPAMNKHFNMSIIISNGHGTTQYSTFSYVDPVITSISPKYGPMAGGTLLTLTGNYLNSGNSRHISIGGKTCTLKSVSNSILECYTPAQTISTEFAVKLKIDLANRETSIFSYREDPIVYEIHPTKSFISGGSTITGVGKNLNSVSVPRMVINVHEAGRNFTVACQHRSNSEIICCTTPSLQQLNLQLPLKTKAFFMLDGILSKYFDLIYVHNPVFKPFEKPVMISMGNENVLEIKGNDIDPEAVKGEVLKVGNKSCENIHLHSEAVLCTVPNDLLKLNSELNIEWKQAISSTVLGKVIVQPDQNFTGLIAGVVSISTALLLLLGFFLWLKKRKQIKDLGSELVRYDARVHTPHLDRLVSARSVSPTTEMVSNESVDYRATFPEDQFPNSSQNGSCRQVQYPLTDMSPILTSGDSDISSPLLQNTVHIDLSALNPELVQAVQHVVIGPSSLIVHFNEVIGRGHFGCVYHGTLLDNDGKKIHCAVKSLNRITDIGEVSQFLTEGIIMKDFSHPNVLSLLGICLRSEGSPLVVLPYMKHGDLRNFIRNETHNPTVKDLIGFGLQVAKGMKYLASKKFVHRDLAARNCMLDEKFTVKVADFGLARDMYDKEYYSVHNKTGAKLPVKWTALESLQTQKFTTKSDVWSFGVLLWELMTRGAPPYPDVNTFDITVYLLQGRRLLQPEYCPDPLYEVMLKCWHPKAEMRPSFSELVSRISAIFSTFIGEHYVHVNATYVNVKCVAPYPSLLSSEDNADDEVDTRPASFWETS
Description: as §1

[16] = biological target: INSR (Homo sapiens, UniProt P06213)
Description: as §1

[17] = biological target: T8, SRM (Homo sapiens, UniProt Q9H3Y6)
T8 construct: gene SRMS
Description: as §1

[18] = biological target: SLK (Homo sapiens, UniProt Q9H2G2)
Description: as §1

[19] = biological target: EPHA4 (Homo sapiens, UniProt P54764)
EPHA4, sequence (P54764 whole entry): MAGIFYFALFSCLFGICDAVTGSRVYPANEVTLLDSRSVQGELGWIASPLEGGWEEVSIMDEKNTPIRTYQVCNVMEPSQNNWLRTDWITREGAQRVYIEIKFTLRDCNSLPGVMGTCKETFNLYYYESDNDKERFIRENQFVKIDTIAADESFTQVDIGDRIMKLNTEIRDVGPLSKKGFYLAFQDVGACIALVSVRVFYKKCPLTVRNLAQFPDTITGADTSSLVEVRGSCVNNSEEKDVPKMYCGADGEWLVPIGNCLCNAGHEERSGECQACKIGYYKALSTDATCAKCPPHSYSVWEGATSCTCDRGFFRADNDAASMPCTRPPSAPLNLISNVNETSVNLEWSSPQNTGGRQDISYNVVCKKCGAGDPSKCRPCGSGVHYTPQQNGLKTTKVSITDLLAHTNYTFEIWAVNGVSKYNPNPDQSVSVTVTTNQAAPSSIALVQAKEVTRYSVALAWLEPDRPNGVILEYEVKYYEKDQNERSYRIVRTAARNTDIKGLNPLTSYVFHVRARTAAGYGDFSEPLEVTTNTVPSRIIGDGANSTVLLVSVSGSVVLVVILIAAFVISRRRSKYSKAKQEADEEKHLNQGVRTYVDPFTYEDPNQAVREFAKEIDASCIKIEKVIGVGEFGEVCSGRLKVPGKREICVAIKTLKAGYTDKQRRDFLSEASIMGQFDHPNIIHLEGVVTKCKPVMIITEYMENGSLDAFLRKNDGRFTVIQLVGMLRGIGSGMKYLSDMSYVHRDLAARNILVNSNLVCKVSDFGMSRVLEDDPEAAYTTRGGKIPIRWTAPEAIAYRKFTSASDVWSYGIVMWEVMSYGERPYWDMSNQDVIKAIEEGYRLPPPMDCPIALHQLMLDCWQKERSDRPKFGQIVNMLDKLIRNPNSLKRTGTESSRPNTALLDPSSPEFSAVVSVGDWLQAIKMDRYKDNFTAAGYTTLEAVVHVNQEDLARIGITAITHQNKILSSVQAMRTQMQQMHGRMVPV
Description: as §1

[20] = biological target: T9, CK1γ3 (Homo sapiens, UniProt Q9Y6M4)
T9 construct: gene CSNK1G3
Description: as §1

[21] = biological target: NEK4 (Homo sapiens, UniProt P51957)
Description: as §1

[22] = biological target: IRAK4 (Homo sapiens, UniProt Q9NWZ3)
IRAK4, sequence (Q9NWZ3 whole entry): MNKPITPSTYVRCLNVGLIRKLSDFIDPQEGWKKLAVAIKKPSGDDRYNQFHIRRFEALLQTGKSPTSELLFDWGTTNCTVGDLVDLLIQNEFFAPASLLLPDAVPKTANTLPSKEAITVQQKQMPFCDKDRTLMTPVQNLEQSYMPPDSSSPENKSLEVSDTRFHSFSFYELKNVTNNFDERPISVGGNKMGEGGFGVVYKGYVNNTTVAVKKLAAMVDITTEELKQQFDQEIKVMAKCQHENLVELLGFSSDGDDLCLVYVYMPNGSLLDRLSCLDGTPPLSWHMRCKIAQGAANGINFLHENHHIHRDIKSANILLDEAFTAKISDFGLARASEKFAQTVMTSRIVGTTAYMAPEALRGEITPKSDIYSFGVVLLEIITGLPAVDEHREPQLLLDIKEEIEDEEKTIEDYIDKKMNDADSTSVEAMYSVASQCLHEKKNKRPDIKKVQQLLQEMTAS
Description: as §1

[23] = biological target: T10, TRKA (Homo sapiens, UniProt P04629)
T10 construct: gene NTRK1
Description: as §1

[24] = biological target: HIPK1 (Homo sapiens, UniProt Q86Z02)
Description: as §1

[25] = biological target: LTK (Homo sapiens, UniProt P29376)
Description: as §1

[26] = biological target: T11, CDC2/CycB1 (Homo sapiens, UniProt P06493)
T11 construct: gene CDK1
Description: as §1

[27] = biological target: FGFR2 (Homo sapiens, UniProt P21802)
Description: as §1

[28] = biological target: CDK4/CycD3 (Homo sapiens, UniProt P11802)
Description: as §1

[29] = biological target: FLT3 (Homo sapiens, UniProt P36888)
Description: as §1

[30] = biological target: T12, TRKB (Homo sapiens, UniProt Q16620)
T12 construct: gene NTRK2
Description: as §1

[31] = biological target: T13, Erk1 (Homo sapiens, UniProt P27361)
T13 construct: gene MAPK3
T13 sequence (P27361 whole entry): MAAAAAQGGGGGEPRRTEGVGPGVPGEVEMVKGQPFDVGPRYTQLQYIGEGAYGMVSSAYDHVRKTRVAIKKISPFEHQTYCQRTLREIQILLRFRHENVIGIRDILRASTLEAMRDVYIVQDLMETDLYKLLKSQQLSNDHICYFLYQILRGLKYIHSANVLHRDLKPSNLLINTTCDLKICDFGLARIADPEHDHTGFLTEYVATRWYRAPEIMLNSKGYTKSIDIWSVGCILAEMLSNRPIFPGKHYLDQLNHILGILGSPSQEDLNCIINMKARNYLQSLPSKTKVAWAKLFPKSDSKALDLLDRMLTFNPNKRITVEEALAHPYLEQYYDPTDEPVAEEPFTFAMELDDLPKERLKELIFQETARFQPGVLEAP
Description: as §1

`c1cc(-c2ccc3[nH]ncc3c2)ccn1` [TG693, 5-(4-pyridinyl)-1H-indazole] gave an inhibition at 1 µM [1] of 5.4%, an inhibition at 1 µM [2] of 5.2% and an inhibition at 1 µM [3] of -7.3%. It also gave an inhibition at 1 µM [4] of -1.3%, an inhibition at 1 µM [5] of -1.5% and an inhibition at 1 µM [6] of -36.6%. It also gave an inhibition at 1 µM [7] of 0.5%, an inhibition at 1 µM [8] of -3.9% and an inhibition at 1 µM [9] of 18.7%. The inhibition at 1 µM [10] was 13.3%, the inhibition at 1 µM [11] was -1.3% and the inhibition at 1 µM [12] was 9.6%. For the same compound, the inhibition at 1 µM [13] was 2.7%, the inhibition at 1 µM [14] was 13.2% and the inhibition at 1 µM [15] was -0.8%. For the same compound, the inhibition at 1 µM [16] was -5.9%, the inhibition at 1 µM [17] was 1.5% and the inhibition at 1 µM [18] was 1.2%. It also gave an inhibition at 1 µM [19] of 2.4%, an inhibition at 1 µM [20] of -7.7% and an inhibition at 1 µM [21] of -4.2%. It also gave an inhibition at 1 µM [22] of 8.4%, an inhibition at 1 µM [23] of 5.1% and an inhibition at 1 µM [24] of -3.5%. The inhibition at 1 µM [25] was 3%, the inhibition at 1 µM [26] was 10.3% and the inhibition at 1 µM [27] was 1.7%. For the same compound, the inhibition at 1 µM [28] was 5.4%, the inhibition at 1 µM [29] was 17.5% and the inhibition at 1 µM [30] was 0.1%. It also gave an inhibition at 1 µM [31] of 1.4%.
